# Like-named read-outs stand apart in the source and are kept apart here.
# What was measured:
# [1] = Cytotoxicity by WST-8 assay, C3H10T1/2; type: cell-based, murine; details: mouse, C3H10T1/2 cells, Table 3, 48 hours
# Protocol: (§1) Subsequently, the following cell types: HL60 (human promyelocytic leukemia cells), HeLa (human cervical cancer cells), C3H10T1/2 (murine multipotential mesenchymal cells), and HEK293 (human embryonic kidney 293 cells); were treated with metal complexes M-L6 (M=Zn, Fe, Cu, Co, Ni, and Mn) for 48 hours, and then subjected to WST-8 assay to perform evaluation of the cytotoxicity of each kind of metal complex.
# [2] = tested on: mouse malaria parasites (Plasmodium berghei ANKA strain); assay: Life-prolonging effect in malaria-infected mice, oral administration; type: in vivo; details: oral 200 mg/kg on Day 1, Day 3, and Day 6
# Protocol: (§2) To mice (7 weeks old, Balb/c, male), erythrocytes infected with mouse malaria parasites (Plasmodium berghei ANKA strain) (total number of erythrocytes per mouse, about 10^7; rate of malaria-infected erythrocytes, 0.3%) were intraperitoneally injected. L6 was administered (20 mg/kg, intraperitoneal injection) to each of the thus obtained malaria-infected mice, and the rate of malaria-infected erythrocytes was measured. As a result, on Day 2 to Day 6 after the infection, the infection rate tended to increase in the negative control to which only DMSO was administered. […] The effect of L6 to reduce the infection rate was almost equivalent to the effect of an existing drug, chloroquine (CQ).
# To malaria-infected mice obtained by the same procedure as in Experiment 4, an aqueous solution of L6 or the zinc complex Zn-L6 was orally administered (at a dose of 200 mg/kg on Day 1, Day 3, and Day 6; N=6), and changes in the number of surviving individuals were investigated. […] That is, it is thought that, by formation of metal complex with zinc ion, L6 can remarkably suppress the toxicity in vivo while sufficiently maintaining the antimalarial activity.
# [3] = tested on: mouse malaria parasites (Plasmodium berghei ANKA strain); assay: Life-prolonging effect after infection with malaria, intraperitoneal; type: in vivo; details: malaria-infected mice, 20 mg/kg intraperitoneal injection
# [4] = Cytotoxicity by WST-8 assay, 3Y1; type: cell-based; details: rat, 3Y1 cells, 3Y1, 48 hours
# Protocol: (§3) After treating various kinds of cells (HEK293T: human embryonic kidney cells; HeLa: human cervical cancer cells; NIH3T3: mouse fibroblast cells; tsNRK: rat kidney cells; and 3Y1: rat fibroblasts) with a metal chelator for 48 hours, the cytotoxicities of the cells were evaluated by WST-8 assay.
# [5] = Cytotoxicity by WST-8 assay, tsNRK; type: cell-based; details: rat, tsNRK cells
# Protocol: as §3
# [6] = tested on: mouse malaria parasites (Plasmodium berghei ANKA strain); assay: Effect to suppress malaria infection in malaria-infected mice; type: in vivo; details: Balb/c mice, 20 mg/kg intraperitoneal injection, Day 2 to Day 6 after infection
# Protocol: as §2
# [7] = tested on: drug-resistant malaria parasite K1 strain; assay: Antimalarial activity by LDH assay, K1 strain; type: cell-based, Plasmodium falciparum; details: Plasmodium falciparum
# Protocol: (§4) The LDH assay was carried out according to the following procedure. That is, 0.5 μL of a solution of each compound in DMSO was added to 100 μL of a culture liquid of erythrocytes (88% RPMI solution; 2% erythrocytes, provided by the Japanese Red Cross Society; and 10% human serum, provided by the Japanese Red Cross Society) infected with falciparum malaria parasites (Plasmodium falciparum: 3D7 strain) (infection rate of erythrocytes, 0.3%). The resulting culture liquid was subjected to culture in a 96-well plate under an atmosphere of 5% CO2, 5% O2, and 90% N2 at 37° C. for three days. Subsequently, the culture liquid was cooled at −80° C. for three hours, and then returned to room temperature. After addition of 150 μL of an LDH enzyme reaction liquid (0.15 mg/mL diaphorase, 37.5 μL/mL of 50% sodium lactate, 0.17 mg/mL NBT, 0.11 mg/mL APAD, 0.16 mL/mL of 1 M Tris-HCl (pH 8), and 8.3 μL/mL of Tween 20), the absorbance at 620 nm was measured.
# (§5) According to the same procedure as in Experiment 1, the antimalarial activities of metal complexes (M-L6) synthesized by mixing various kinds of metal ions (MSO4: M=Zn, Fe, Cu, Co, Ni, or Mn) with L6 at a molar ratio of 1:1 were evaluated by LDH assay.
# According to the same procedure as in Experiment 1, the antimalarial activities of L18 and di-2-pyridylketone 4,4-dimethyl-3-thiosemicarbazone (Sigma) against the malaria parasite 3D7 strain and the drug-resistant malaria parasite K1 strain were evaluated by LDH assay.
# According to the same procedure as in Experiment 1, the antimalarial activities of 4′-(4-Pyridyl)-2,2′:6′,2″-terpyridine (Tokyo Chemical Industry) against the malaria parasite 3D7 strain and the drug-resistant malaria parasite K1 strain were evaluated by LDH assay.
# [8] = Cytotoxicity by WST-8 assay, HeLa; type: cell-based, human; details: human, HeLa cells
# Protocol: as §3, §1
# [9] = tested on: Dd2 strain (drug-resistant malaria parasites); assay: Antimalarial activity by LDH assay, Dd2 strain; type: cell-based, Plasmodium falciparum; details: Plasmodium falciparum
# [10] = Cytotoxicity by WST-8 assay, HL60; type: cell-based, human; details: human, HL60 cells, Table 3, 48 hours
# Protocol: as §1
# [11] = Cytotoxicity by WST-8 assay, HEK293T; type: cell-based; details: human, HEK293T cells
# Protocol: as §3
# [12] = tested on: human cells (HEK293T and HeLa); assay: Cytotoxicity by WST-8 assay, summary for human cells; type: cell-based; details: 48 hours, read-out: concentration at which toxicity is exerted (IC50 value)
# Protocol: as §3
# [13] = tested on: chloroquine-resistant strain; assay: Antimalarial activity against a chloroquine-resistant strain; type: cell-based; details: result in words
# [14] = Cytotoxicity by WST-8 assay, HEK293; type: cell-based, human; details: human, HEK293 cells, Table 3, 48 hours
# Protocol: as §1
# [15] = Cytotoxicity by WST-8 assay, NIH3T3; type: cell-based; details: mouse, NIH3T3 cells, NIH3T3, 48 hours
# Protocol: as §3
# [16] = tested on: Plasmodium falciparum: 3D7 strain; assay: Antimalarial activity by LDH assay, 3D7 strain; type: cell-based; details: for IC50: Plasmodium falciparum
# Protocol: Compounds that chelate metal ions in various modes (L1 to L25 in FIG. 1) were selected, and their antimalarial activities were evaluated by LDH assay. Since infection with malaria causes an increase in the LDH activity, the evaluation can be made based on the criteria that the lower the detected LDH activity, the higher the antimalarial activity.
# as §4
# By the same procedure as in Experiment 1, erythrocytes infected with malaria were treated with L6 (about 40 nM) together with iron ion (about 50 μM), copper ion (about 1 μM), or zinc ion (about 10 μM), and the antimalarial activity was evaluated by LDH assay.
# as §5
compound,measurement,setting,value
"c1ccc(CN(Cc2ccccn2)Cc2ccccn2)nc1 [L6, Tris(2-pyridylmethyl)amine]",IC50 at 48 h,[1],5.7 µM
same,toxicity in vivo,[2],influence of toxicity appears
same,life-prolonging effect (number of surviving individuals),[3],remarkable life-prolonging effect
same,IC50 at 48 h,[4]; 1st measurement,2.42 µM
same,IC50 at 48 h,[4]; 2nd measurement,3.87 µM
same,IC50 at 48 h,[5]; 1st measurement,1880 nM
same,IC50 at 48 h,[5]; 2nd measurement,1900 nM
same,rate of malaria-infected erythrocytes (infection rate),[6],infection rate could be remarkably suppressed
same,IC50,[7]; read-out: IC50 antimalarial activity against the K1 strain,80 to 160 nM
same,IC50,"[7]; read-out: IC50 antimalarial activity, K1",82 nM
same,IC50 at 48 h,"[8]; HeLa, 48 hours, 1st measurement (Table 1), read-out: IC50 value, cytotoxicity",5.61 µM
same,IC50 at 48 h,"[8]; HeLa, 48 hours, 2nd measurement (Table 1), read-out: IC50 value, cytotoxicity",5.16 µM
same,IC50 at 48 h,"[8]; Table 3, 48 hours, WST-8, read-out: IC50 cytotoxicity, HeLa",5.8 µM
same,IC50,"[9]; DD2, read-out: IC50 antimalarial activity against the Dd2 strain",80 to 160 nM
same,IC50,"[9]; DD2, read-out: IC50 antimalarial activity, Dd2",144 nM
same,IC50 at 48 h,[10],1800 nM
same,IC50 at 48 h,[11]; 1st measurement,5.08 µM
same,IC50 at 48 h,[11]; 2nd measurement,5.31 µM
same,IC50,[12],5.08 to 5.61 µM
same,antimalarial activity against a chloroquine-resistant strain,[13],exhibit antimalarial activity also against a chloroquine-resistant strain
same,IC50 at 48 h,[14],6 µM
same,IC50 at 48 h,[15]; 1st measurement,1800 nM
same,IC50 at 48 h,[15]; 2nd measurement,1950 nM
same,"antimalarial activity (LDH assay, FIG. 2)","[16]; 10 nM to 10 μM, result in words",remarkable antimalarial activity
same,antimalarial activity of L6 together with added metal ion,[16]; L6 about 40 nM with excess zinc ion (about 10 μM),suppression of the antimalarial activity was found to some extent
same,IC50,"[16]; 3D7, 3D7 strain, values in text, read-out: IC50 value for the antimalarial activity based on the LDH assay",~31 nM
same,IC50,"[16]; 3D7, read-out: IC50 antimalarial activity, 3D7",84 nM
